From US6930227B1 (Mitsui Chemicals, Inc., priority 1999, dated 2005)

Assays:
[1] = target: T1, N-methyl transferase (Camellia sinensis, UniProt Q9FZN8); assay: N-methyl transferase measurement with enzyme solution from Escherichia coli expressing the gene (14C-caffeine extraction); type: biochemical; conditions: for production of methylated product from the added substrate: substrate added instead of paraxanthine, same reaction solution
T1 construct: made in house; host or cells: Escherichia coli BL21 (DE3), vector pET23d
T1 sequence (Q9FZN8 14-369 limits assumed): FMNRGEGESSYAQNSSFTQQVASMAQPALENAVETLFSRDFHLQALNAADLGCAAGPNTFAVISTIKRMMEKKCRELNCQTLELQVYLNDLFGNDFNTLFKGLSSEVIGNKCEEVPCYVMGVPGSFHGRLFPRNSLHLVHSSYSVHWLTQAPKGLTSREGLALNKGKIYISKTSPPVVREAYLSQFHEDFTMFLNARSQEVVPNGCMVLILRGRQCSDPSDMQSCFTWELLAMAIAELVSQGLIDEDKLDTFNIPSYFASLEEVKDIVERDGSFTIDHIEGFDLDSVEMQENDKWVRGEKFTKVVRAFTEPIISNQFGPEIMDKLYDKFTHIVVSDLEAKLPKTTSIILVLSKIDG
Method: Separately, a fragment obtained by treating the isolated N-methyl transferase gene DNA fragment with NcoI and EcoRI was inserted into a pET23d vector. Then, the above PCR product was inserted into the NcoI site of this pET23d vector to construct an N-methyl transferase expression plasmid. This plasmid was transformed to Escherichia coli BL21 (DE3). After the obtained Escherichia coli was cultured at 37° C. for 2 hours, IPTG was added thereto so as to be 0.3 mM in final concentration, and 3-hour culture was further carried out at 30° C. After culturing had been completed, cells were collected and the cells from 3 ml culture solution were subjected to supersonic treatment for 1 minute with interval in 0.2 ml 10 mM Tris-hydrochloric acid buffer solution (pH 7.5), 0.1 M NaCl, 1 mM EDTA-Na2. Then, centrifugation was carried out at 14,000 rpm for 10 minutes, and the obtained supernatant was employed as an enzyme solution.
The reaction solution for N-methyl transferase measurement was prepared as follows. […] Reaction was carried out at 27° C. for 10 minutes, the obtained ^14C-caffeine was extracted by adding 1 ml chloroform thereto and the radiation activity of a chloroform layer was measured. As a control, xanthosine was added to the reaction solution instead of paraxanthine or paraxanthine was removed.

[2] = target: T2, N-methyl transferase (Camellia sinensis, UniProt Q9FZN8); type: biochemical
T2 sequence (Q9FZN8 1-369): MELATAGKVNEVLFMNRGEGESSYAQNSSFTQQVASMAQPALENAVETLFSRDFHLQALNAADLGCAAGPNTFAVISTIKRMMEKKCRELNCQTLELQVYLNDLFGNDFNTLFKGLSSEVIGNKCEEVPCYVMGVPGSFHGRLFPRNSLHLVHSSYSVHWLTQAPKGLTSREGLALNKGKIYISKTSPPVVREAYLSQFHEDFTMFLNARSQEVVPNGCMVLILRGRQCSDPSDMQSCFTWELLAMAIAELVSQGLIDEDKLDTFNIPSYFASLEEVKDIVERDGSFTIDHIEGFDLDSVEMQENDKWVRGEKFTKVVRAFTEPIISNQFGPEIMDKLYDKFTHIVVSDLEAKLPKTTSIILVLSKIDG
Method: Inhibitor: SAH (S-adenosyl homocysteine)
The reaction solution for N-methyl transferase measurement was prepared as follows. […] Reaction was carried out at 27° C. for 10 minutes, the obtained ^14C-caffeine was extracted by adding 1 ml chloroform thereto and the radiation activity of a chloroform layer was measured.

[3] = substrate: Cn1c(=O)[nH]c2ncn(C)c2c1=O; assay: purified protein, by the assay type; conditions: other: substrate of the N-methyl transferase; pH 8.5; 27.0 °C

Molecule: Cn1cnc2[nH]c(=O)[nH]c(=O)c21 [7-methyl xanthine]
- production of methylated product from the added substrate [1]: production of theobromine was observed

Molecule: Nc1ncnc2c1ncn2[C@@H]1O[C@H](CSCC[C@H](N)C(=O)O)[C@@H](O)[C@H]1O [SAH, S-adenosyl homocysteine]
- Inhibitor ([2]; inhibitor of the N-methyl transferase): Inhibitor

Molecule: C[S+](CC[C@H](N)C(=O)[O-])C[C@H]1O[C@@H](n2cnc3c(N)ncnc32)[C@H](O)[C@@H]1O (some centres unmarked) [SAM, S-adenosyl methionine]
- Km ([2]; substrate of the N-methyl transferase): 21 µM

Molecule: Cn1c(=O)[nH]c2ncn(C)c2c1=O [paraxanthine]
- caffeine produced ([1]; 0.2 mM substrate, 4 μM S-adenosyl methionine, 10 μl enzyme solution, pH 8.5, 27° C., 10 minutes): 1.56 pmol

Molecule: Cn1cnc2c1c(=O)[nH]c(=O)n2C [theobromine]
- production of methylated product from the added substrate [1]: production of caffeine was observed

Molecule: O=c1[nH]c(=O)c2ncn([C@@H]3O[C@H](CO)[C@@H](O)[C@H]3O)c2[nH]1 [xanthosine]
- production of methylated product from the added substrate [1]: caffeine was produced only when paraxanthine was added

B1: N-methyl transferase (Camellia sinensis) (protein)
chain: MELATAGKVNEVLFMNRGEGESSYAQNSSFTQQVASMAQPALENAVETLFSRDFHLQALNAADLGCAAGPNTFAVISTIKRMMEKKCRELNCQTLELQVYLNDLFGNDFNTLFKGLSSEVIGNKCEEVPCYVMGVPGSFHGRLFPRNSLHLVHSSYSVHWLTQAPKGLTSREGLALNKGKIYISKTSPPVVREAYLSQFHEDFTMFLNARSQEVVPNGCMVLILRGRQCSDPSDMQSCFTWELLAMAIAELVSQGLIDEDKLDTFNIPSYFASLEEVKDIVERDGSFTIDHIEGFDLDSVEMQENDKWVRGEKFTKVVRAFTEPIISNQFGPEIMDKLYDKFTHIVVSDLEAKLPKTTSIILVLSKIDG
- Km [3]: 24 µM

B2: N-methyl transferase: polypeptide of SEQ ID NO: 1 with 7-methyl xanthine N3, theobromine N1 and paraxanthine N3 methyl transferase activities (protein)
chain: FMNRGEGESSYAQNSSFTQQVASMAQPALENAVETLFSRDFHLQALNAADLGCAAGPNTFAVISTIKRMMEKKCRELNCQTLELQVYLNDLFGNDFNTLFKGLSSEVIGNKCEEVPCYVMGVPGSFHGRLFPRNSLHLVHSSYSVHWLTQAPKGLTSREGLALNKGKIYISKTSPPVVREAYLSQFHEDFTMFLNARSQEVVPNGCMVLILRGRQCSDPSDMQSCFTWELLAMAIAELVSQGLIDEDKLDTFNIPSYFASLEEVKDIVERDGSFTIDHIEGFDLDSVEMQENDKWVRGEKFTKVVRAFTEPIISNQFGPEIMDKLYDKFTHIVVSDLEAKLPKTTSIILVLSKIDG
- Optimum pH [2]: 8.5
